Assay results as given in patent publication US20260226049A1, “NITROGEN-CONTAINING HETEROCYCLIC COMPOUND, PREPARATION METHOD THEREFOR, AND USE THEREOF” (BIVISION PHARMACEUTICALS, INC, priority 2023, published 2026).
pEC50: −log10 of the molar value. Like-named read-outs stand apart in the source and are kept apart here.

Tested on: HT1080 8 #cells
Assay: Cell competitive binding assay against ^177Lu-radiolabeled FAPi-46
Method: (1) HT1080 8 #cells in the logarithmic growth phase were prepared into a cell suspension, and the cell density was adjusted to 1×10^4/mL. 1 mL of the suspension was seeded into a 24-well cell culture plate. The plate was incubated overnight in a 37° C. incubator.
(2) The cell culture medium was aspirated, and the cells were washed once with PBS, followed by the addition of 975 μL of additive-free medium.
(3) To each well, 25 µL of ^177Lu-radiolabeled FAPi-46 (Nanchang Tanzhen Biotechnology Co., Ltd., CAS: 2374782-04-2) at a fixed concentration (final concentration in culture medium: 1.35 μCi/mL) and varying concentrations (final concentrations in culture medium: 1000 ng/mL, 100 ng/ml, 10 ng/ml, 1 ng/mL, 0.1 ng/ml, 0.01 ng/mL, 0.001 ng/mL, 0 ng/ml) of unlabeled test compounds JHH8, JHDB8, and JHH9 were added.
(4) The mixture was incubated on ice for 2 hours.
(5) The cells were washed three times with ice-cold PBS.
(6) The cells were lysed with 0.5 mL of 1 M sodium hydroxide, washed twice with 0.5 mL of PBS, and the sodium hydroxide solution (0.5 mL) and PBS solutions (0.5 mL×2) were collected for uptake counting.
The control compound was OncoFAP-DOTAGA (structural formula: […]
The cell competitive binding of compounds JHH5, JHH4, JHH10, JHH8, H4b, H5b, and H8b was tested in the same batch using the above method, and the experimental results are shown in Table 3 and FIG. 3.

- pEC50 (EC50 (ng/mL) converted with molecular weight, read-out: EC50): 8.74
- EC50 (competition with ^177Lu-FAPi-46, on ice 2 hours): 1.726 ng/mL
SMILES: N#C[C@@H]1CC(F)(F)CN1C(=O)CNC(=O)c1cccc2c1CCN(C(=O)CCC(=O)NCCNC(=O)CCC(C(=O)O)N1CCN(CC(=O)O)CCN(CC(=O)O)CCN(CC(=O)O)CC1)C2 (some centres unmarked) [JHH5]
